The values below come from article PMC6337391 (Molecules, 2019).

SMILES strings stand for the structures.

Data set [1] deals with acetyl-cholinesterase (AChE) (Electrophorus electricus, UniProt O42275). Particulars: cited from earlier work.
On the set-up of data set [2]: method as in PMID 25798685. The note with it: DPPH, cited from earlier work. (In general: Loss of DPPH colour is used to gauge radical scavenging.)
Data set [3] has as its system L929 mouse fibroblasts cells. Also noted: method as in PMID 25798685. The note with it: 24-h incubation, cited from earlier work.
The target of another data set is T1, Aβ40 (Homo sapiens, UniProt P05067).
T1 construct: Amyloid peptide Aβ40 was purchased from AnaSpec Co; purchased AnaSpec Co. (Fremont, CA, USA)
Briefly: Circular dichroism study of Aβ40 aggregation. Particulars: 50 µM compound, 50 µM Aβ40 (1:1), PB pH 7.33, 33 °C, 40 days. The text has this:
The pathogenesis of Alzheimer’s disease (AD) is widely associated with the aggregation of β-amyloid peptide (Aβ) either to soluble oligomers or to higher-order polymeric insoluble fibrils. As a result, one of the main therapeutic strategies against AD targets the aggregation process of Aβ, and a great number of small molecules are being investigated for their potential to intervene in the assembly of Aβ and inhibit its neurotoxicity in vitro and in vivo [64]. Circular dichroism (CD) spectroscopy is commonly used to probe the secondary structure of polypeptides and to monitor conformational changes and interactions of polypeptides with small molecules. The typical aggregation process of Aβ produces characteristic CD spectra over time that reflect the conformational changes that occur as the random coil monomers are converted into β-sheet oligomers, and then gradually to larger β-sheet formations that finally produce amyloid fibrils. CD is, therefore, a valuable tool to monitor the aggregation process of Aβ and to study the effect of potential aggregation inhibitors. To further investigate the pleiotropic effects of chalcones against AD, selected compounds from our library, were subjected to CD studies in order to evaluate their potential to interfere with the aggregation process of Aβ40. […] The aggregation spectra of plain Aβ40 show at day 0 the typical random coil peak (negative maximum at 198 nm) the intensity of which gradually decreases as the peptide forms β–sheet structures (negative maximum at 222 nm, day 15) that further aggregate to higher order polymeric fibrils. The precipitation of the insoluble fibrils from solution eventually results in the loss of CD signal (days 30 and 40). […] In view of the above results, chalcone derivatives bearing a three-carbon chain linker, specifically c2, c3, and c4, were subsequently studied in order to assess the effect of further derivatization and the presence of the chalcone moiety in the structure. […] Overall, our CD study identified three new structures capable of interfering with the aggregation process of Aβ, out of which compounds c2 and c4 display additional protective actions against AD and add to the pleiotropic profile of the chalcone derivatives.
Preparation of Aβ stocks and solutions. Amyloid peptide Aβ40 was purchased from AnaSpec Co. (Fremont, CA, USA) (>95% pure). Aβ40 was gently dissolved without vortexing in Type 1 (Milli-Q) water to a final concentration of 100 μM. Solutions of Aβ in phosphate buffer (PB, 10 mM, pH 7.33) were prepared by adding equal volumes of PB to aliquots of the aqueous solution stock to achieve final concentration of 50 µM. The proper amount of the compounds c2, c3, c4, di, dii, and dvi were added to the Aβ solutions to achieve concentration of 50 μM. The secondary structural changes of Aβ were monitored for 40 days by CD. During this period, the amyloid peptide solutions were kept at an incubator at 33 °C under quiescent conditions.
Circular dichroism measurements. CD spectra were recorded on a JASCO J-715 spectropolarimeter (Jasco Co., Tokyo, Japan), at 33 °C in the range of 190–260 nm with a 1 mm path length quartz cuvette. Each spectrum was the average of three scans at a speed of 100 nm·min^−1 and a resolution of 0.5 nm. Three independent experiments were run for each condition and in each case solutions of plain Aβ were run as control (Figure 8). The analysis of the CD data was performed using the OriginPro 9 program.

Details of data set [4]: method as in PMID 25798685. The note with it: cited from earlier work.
A short description of data set [5]: In vitro lipid peroxidation of liposomes.
On the set-up of data set [6]: method as in PMID 25798685. Particulars: cited from earlier work. The source holds these as a separate data set.
Details of data set [7]: method as in PMID 25798685. The note with it: RP-TLC, methanol/water 70/30, SD < 10%; cited from earlier work.
Another data set addresses T2, soybean lipoxygenase (Glycine max, UniProt P08170).
T2 sequence (P08170 1-839): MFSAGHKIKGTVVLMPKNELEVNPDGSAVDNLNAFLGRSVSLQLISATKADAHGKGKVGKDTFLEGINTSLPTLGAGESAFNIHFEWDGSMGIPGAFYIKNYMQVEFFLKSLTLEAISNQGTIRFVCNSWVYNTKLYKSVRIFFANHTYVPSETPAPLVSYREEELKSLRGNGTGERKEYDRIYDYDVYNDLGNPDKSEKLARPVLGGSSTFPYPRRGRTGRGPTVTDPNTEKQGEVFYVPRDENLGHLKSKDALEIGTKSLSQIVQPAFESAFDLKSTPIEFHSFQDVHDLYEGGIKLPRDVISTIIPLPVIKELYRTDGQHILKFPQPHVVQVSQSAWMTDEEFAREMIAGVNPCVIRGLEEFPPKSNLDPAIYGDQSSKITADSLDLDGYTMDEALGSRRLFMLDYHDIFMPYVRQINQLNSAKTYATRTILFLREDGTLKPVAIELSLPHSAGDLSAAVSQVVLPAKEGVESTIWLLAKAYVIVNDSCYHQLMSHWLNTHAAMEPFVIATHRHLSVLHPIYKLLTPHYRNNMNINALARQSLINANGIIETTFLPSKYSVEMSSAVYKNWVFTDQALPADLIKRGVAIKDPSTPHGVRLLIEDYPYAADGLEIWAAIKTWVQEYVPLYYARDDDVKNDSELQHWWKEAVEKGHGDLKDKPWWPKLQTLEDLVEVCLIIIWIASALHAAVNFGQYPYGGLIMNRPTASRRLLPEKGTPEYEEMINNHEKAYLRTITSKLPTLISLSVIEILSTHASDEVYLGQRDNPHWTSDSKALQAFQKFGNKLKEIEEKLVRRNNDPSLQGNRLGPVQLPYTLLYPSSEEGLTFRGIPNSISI
Also noted: method as in PMID 25798685. Particulars: cited from earlier work.

T1 sequence (P05067 672-711 limits assumed): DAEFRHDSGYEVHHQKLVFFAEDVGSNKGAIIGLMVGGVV
Sequence of acetyl-cholinesterase (AChE) (O42275 24-633): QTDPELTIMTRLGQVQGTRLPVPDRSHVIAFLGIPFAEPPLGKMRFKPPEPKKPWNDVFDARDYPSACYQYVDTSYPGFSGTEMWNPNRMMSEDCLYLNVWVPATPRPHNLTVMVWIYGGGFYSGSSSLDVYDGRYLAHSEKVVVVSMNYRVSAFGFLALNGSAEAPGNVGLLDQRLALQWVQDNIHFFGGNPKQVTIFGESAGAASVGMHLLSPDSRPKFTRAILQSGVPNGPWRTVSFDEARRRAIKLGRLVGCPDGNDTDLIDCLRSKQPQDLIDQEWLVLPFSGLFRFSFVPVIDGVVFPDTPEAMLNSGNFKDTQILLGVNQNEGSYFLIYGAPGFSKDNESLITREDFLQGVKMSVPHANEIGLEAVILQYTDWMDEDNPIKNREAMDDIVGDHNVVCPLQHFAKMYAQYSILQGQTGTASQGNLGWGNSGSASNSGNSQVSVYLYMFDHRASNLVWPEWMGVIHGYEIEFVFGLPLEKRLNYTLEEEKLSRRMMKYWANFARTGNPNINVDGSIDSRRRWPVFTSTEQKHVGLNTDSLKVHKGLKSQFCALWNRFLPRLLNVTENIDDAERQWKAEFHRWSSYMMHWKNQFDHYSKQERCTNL

A word on the IC50: it is the midpoint of a concentration-inhibition curve. As for `O=C(/C=C/c1cccc(Oc2ccccc2)c1)c1ccc(OCCCOc2ccc(C(=O)/C=C/c3cccc(Oc4ccccc4)c3)cc2)cc1` [c2, (2E,2′E)-1,1′-((propane-1,3-diylbis(oxy))bis(4,1-phenylene))bis(3-(3-phenoxyphenyl)prop-2-en-1-one)], in data set [1], the “% AChE Inhb. @ 100 μM” value is 71%. For the same compound, in data set [2], the “RA% 100 μM 20 min” value was “No” and the “RA% 100 μM 60 min” value was 8%. For the same compound, in data set [3], the “1 μM Average (% pi) ± σ” value is on record as 17 ± 1.4%, the “10 μM Average (% pi) ± σ” value was 29 ± 4.2%, the “20 μM Average (% pi) ± σ” value is given as 43 ± 2.8% and the “50 μM Average (% pi) ± σ” value is reported as 55 ± 4.2%. Besides, the “100 μM Average (% pi) ± σ” value in data set [3] was 55 ± 4.2%. Moreover, the “effect on the aggregation process of Aβ40 (CD spectra)” value (“effect on the aggregation process” below) at Aβ40 is recorded as “stabilized β-sheet assemblies that did not evolve further into insoluble fibrillar aggregates”. The “ABTS•+ Inhb. % @ 100 μM” value in data set [4] is “no”. Besides, the “% Inhb. of Liposomes LP @ 100 μM” value in data set [5] is recorded as 2%. The “AAPH% @ 100 μM (anti-lipid peroxidation)” value in data set [6] is 22%. In [7], the RM is −0.89. Also, the “% LOX Inhb. @ 100 μM” value on soybean lipoxygenase is 100%. Further, the IC50 at soybean lipoxygenase (soybean LOX) was 55 µM.
As for `CN(C)c1ccc(/C=C/C=C/C(=O)c2ccc(OCCCOc3ccc(C(=O)/C=C/C=C/c4ccc(N(C)C)cc4)cc3)cc2)cc1` [c3, (2E,2′E, 4E, 4′E)-1,1′-((propane-1,3-diylbis-(oxy))bis(4,1-phenylene)) bis-(5-(4-(dimethylamino)phenyl)penta-2,4-dien-1-one)], in [1], the “% AChE Inhb. @ 100 μM” value was 95%. Besides, in data set [2], the “RA% 100 μM 20 min” value is 17% and the “RA% 100 μM 60 min” value was 14%. Moreover, in data set [3], the “1 μM Average (% pi) ± σ” value is 81 ± 0.8%, the “10 μM Average (% pi) ± σ” value is listed as 90 ± 1%, the “20 μM Average (% pi) ± σ” value was 100 ± 0% and the “50 μM Average (% pi) ± σ” value is on record as 100 ± 0%. In addition, in data set [3], the “100 μM Average (% pi) ± σ” value was 100 ± 0%. Also, the “effect on the aggregation process” value on Aβ40 is recorded as “no significant effect on the aggregation process of Aβ40 was observed”. Moreover, the “ABTS•+ Inhb. % @ 100 μM” value in data set [4] was 99%. The “% Inhb. of Liposomes LP @ 100 μM” value in data set [5] came out at 81%. The “AAPH% @ 100 μM (anti-lipid peroxidation)” value in [6] is on record as 70%. Also, the RM in data set [7] is on record as 0.77. Also, the “% LOX Inhb. @ 100 μM” value on soybean lipoxygenase is listed as 93%.
Take `O=C(/C=C/c1cccc2ccccc12)c1ccc(OCCCOc2ccc(C(=O)/C=C/c3cccc4ccccc34)cc2)cc1` [c4, (2E,2′E)-1, 1′-((propane-1,3-diylbis-(oxy))bis-(4,1-phenylene)) bis-(3-(naphthalen-1-yl)prop-2-en-1-one)]: the “% AChE Inhb. @ 100 μM” value in [1] was 58%. In addition, in [2], the “RA% 100 μM 20 min” value is given as 19% and the “RA% 100 μM 60 min” value was 50%. In data set [3], the “1 μM Average (% pi) ± σ” value was 29.5 ± 3.5%, the “10 μM Average (% pi) ± σ” value is reported as 42 ± 4.6%, the “20 μM Average (% pi) ± σ” value is reported as 46 ± 5.6% and the “50 μM Average (% pi) ± σ” value is given as 67 ± 9.2%. In [3], the “100 μM Average (% pi) ± σ” value is recorded as 67 ± 9.2%. Moreover, the “effect on the aggregation process” value at Aβ40 is given as “stabilized β-sheet assemblies that did not evolve further into insoluble fibrillar aggregates”. Besides, the “ABTS•+ Inhb. % @ 100 μM” value in [4] is on record as “no”. Moreover, the “% Inhb. of Liposomes LP @ 100 μM” value in [5] was found to be 3%. Further, the “AAPH% @ 100 μM (anti-lipid peroxidation)” value in data set [6] is reported as 95%. For the same compound, the RM in data set [7] is 0.43. Besides, the “% LOX Inhb. @ 100 μM” value on soybean lipoxygenase is recorded as 100%.
As for `CC(=O)c1ccc(OCCCOc2ccc(C(C)=O)cc2)cc1` [dii, 1,1′-((propane-1,3-diylbis-(oxy))bis(4,1-phenylene))diethanone], the “% AChE Inhb. @ 100 μM” value in data set [1] is 20%. Besides, in [2], the “RA% 100 μM 20 min” value was “No” and the “RA% 100 μM 60 min” value is “no”. Moreover, in data set [3], the “1 μM Average (% pi) ± σ” value was 9 ± 4.5%, the “10 μM Average (% pi) ± σ” value is 8.5 ± 4.24%, the “20 μM Average (% pi) ± σ” value is given as 13 ± 4.5% and the “50 μM Average (% pi) ± σ” value was 42 ± 3.5%. In data set [3], the “100 μM Average (% pi) ± σ” value is reported as 42 ± 3.5%. In addition, the “effect on the aggregation process” value at Aβ40 is reported as “modified the aggregation course of Aβ40 by stabilizing a β-sheet structure that did not seem to evolve further”. Also, in data set [4], the “ABTS•+ Inhb. % @ 100 μM” value is listed as “No”. In [6], the “AAPH% @ 100 μM (anti-lipid peroxidation)” value was 20%. The RM in data set [7] is given as −0.23. In addition, on soybean lipoxygenase, the “% LOX Inhb. @ 100 μM” value was “no”.
